Measured values reported in US9346815B2, “5-chloro-2-difluoromethoxyphenyl pyrazolopyrimidine compounds, compositions and methods of use thereof” (Genentech, Inc., priority 2014, dated 2016).

Experiments:
[1] = test system: JAK1-dependent STAT6 phosphorylation downstream of IL-13 stimulation in TF-1 human erythroleukemia cells; assay: JAK1 pathway assay in TF-1 cells (IL-13-pSTAT6, MSD); assay type: cell-based; conditions: Homo sapiens, TF-1, TF-1 cells, read-out: IL13-pSTAT6 EC50_TF-1
Experimental: JAK1 Pathway Assay in Cell Lines was Carried Out as Follows:
Inhibitor potency (EC50) was determined in cell-based assays designed to measure JAK1 dependent STAT phosphorylation.
In one assay approach, TF-1 human erythroleukemia cells obtained from the American Type Culture Collection (ATCC; Manassas, Va.) were used to measure JAK1-dependent STAT6 phosphorylation downstream of IL-13 stimulation. Prior to use in the assays, TF-1 cells were starved of GM-CSF overnight in OptiMEM medium (Life Technologies, Grand Island, N.Y.) supplemented with 0.5% charcoal/dextran stripped fetal bovine serum (FBS), 0.1 mM non-essential amino acids (NEAA), and 1 mM sodium pyruvate. The assays were run in 384-well plates in serum-free OptiMEM medium using 300,000 cells per well. In a second assay approach, BEAS-2B human bronchial epithelial cells obtained from ATCC were plated at 100,000 cells per well of a 96-well plate one day prior to the experiment. The BEAS-2B assay was run in complete growth medium (bronchial epithelial basal medium plus bulletkit; Lonza; Basel, Switzerland).
Test compounds were serially diluted 1:2 in DMSO and then diluted 1:50 in medium just before use. Diluted compounds were added to the cells, for a final DMSO concentration of 0.2%, and incubated for 30 min (for the TF-1 assay) or 1 hr (for the BEAS-2B assay) at 37° C. Then, cells were stimulated with human recombinant cytokine at their respective EC90 concentrations, as previously determined for each individual lot. Cells were stimulated with IL-13 (R&D Systems, Minneapolis, Minn.) for 15 min at 37° C. The TF-1 cell reactions were stopped by the direct addition of 10× lysis buffer (Cell Signaling Technologies, Danvers, Mass.), whereas the BEAS-2B cell incubations were halted by the removal of medium and addition of 1× lysis buffer. The resultant samples were frozen in the plates at −80° C. Compound mediated inhibition of STAT6 phosphorylation was measured in the cell lysates using MesoScale Discovery (MSD) technology (Gaithersburg, Md.).

[2] = target: isolated recombinant JAK1 kinase domain (Homo sapiens (Human), UniProt P23458); assay: JAK1 enzyme assay (Caliper LabChip, peptide phosphorylation); assay type: biochemical; conditions: isolated recombinant JAK1 kinase domain, 25 μM ATP
Chain of isolated recombinant JAK1 kinase domain (P23458 875-1153): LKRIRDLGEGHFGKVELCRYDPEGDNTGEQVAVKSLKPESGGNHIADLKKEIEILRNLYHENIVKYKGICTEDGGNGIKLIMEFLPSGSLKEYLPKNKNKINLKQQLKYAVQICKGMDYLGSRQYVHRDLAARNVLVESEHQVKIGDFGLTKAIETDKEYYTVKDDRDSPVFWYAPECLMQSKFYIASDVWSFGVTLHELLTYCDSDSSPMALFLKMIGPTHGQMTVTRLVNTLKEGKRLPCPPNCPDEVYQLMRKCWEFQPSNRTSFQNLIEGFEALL

[3] = target: isolated recombinant JAK2 kinase domain (Homo sapiens (Human), UniProt O60674); assay: JAK2 enzyme assay (Caliper LabChip, peptide phosphorylation); assay type: biochemical; conditions: 25 μM ATP
Chain of isolated recombinant JAK2 kinase domain (O60674 849-1124): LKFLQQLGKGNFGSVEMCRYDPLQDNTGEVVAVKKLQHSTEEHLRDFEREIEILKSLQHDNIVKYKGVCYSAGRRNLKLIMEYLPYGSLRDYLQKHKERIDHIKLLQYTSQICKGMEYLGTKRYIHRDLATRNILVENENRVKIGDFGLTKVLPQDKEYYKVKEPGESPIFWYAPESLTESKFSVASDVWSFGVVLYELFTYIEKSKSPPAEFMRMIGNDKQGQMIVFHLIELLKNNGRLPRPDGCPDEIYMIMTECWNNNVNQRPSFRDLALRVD

Row | EC50 [1] [nM] | Ki [2] [nM] | Ki [3] [nM] | SMILES
1 | 95.9 | 1.28 | – | O=C(Nc1cn(CC(=O)N2CCC(NCCc3ccc(C(F)(F)F)cc3)CC2)nc1-c1cc(Cl)ccc1OC(F)F)c1cnn2cccnc12 [Example 93, N-[3-[5-chloro-2-(difluoromethoxy)phenyl]-1-[2-oxo-2-[4-[2-[4-(trifluoromethyl)phenyl]ethylamino]-1-piperidyl]ethyl]pyrazol-4-yl]pyrazolo[1,5-a]pyrimidine-3-carboxamide]
2 | 17.6 | 0.97 | 2.49 | CN(CCOc1ccc(Cl)cc1)C1CCN(C(=O)Cn2cc(NC(=O)c3cnn4cccnc34)c(-c3cc(Cl)ccc3OC(F)F)n2)CC1 [Example 107, N-[3-[5-chloro-2-(difluoromethoxy)phenyl]-1-[2-[4-[2-(4-chlorophenoxy)ethyl-methyl-amino]-1-piperidyl]-2-oxo-ethyl]pyrazol-4-yl]pyrazolo[1,5-a]pyrimidine-3-carboxamide]
3 | 43 | – | – | CN1C[C@H]2C[C@@H]1CN2C(=O)Cn1cc(NC(=O)c2c(N)nn3cccnc23)c(-c2cc(Cl)ccc2OC(F)F)n1 [Example 252, 2-amino-N-[3-[5-chloro-2-(difluoromethoxy)phenyl]-1-[2-[(1R,4R)-5-methyl-2,5-diazabicyclo[2.2.1]heptan-2-yl]-2-oxo-ethyl]pyrazol-4-yl]pyrazolo[1,5-a]pyrimidine-3-carboxamide]
4 | 6.9 | 0.74 | – | CN1CCC2CN(C(=O)Cn3cc(NC(=O)c4c(N)nn5cccnc45)c(-c4cc(Cl)ccc4OC(F)F)n3)CCC21 (centres unmarked) [Example 56, 2-amino-N-[3-[5-chloro-2-(difluoromethoxy)phenyl]-1-[2-(1-methyl-3,3a,4,6,7,7a-hexahydro-2H-pyrrolo[3,2-c]pyridin-5-yl)-2-oxo-ethyl]pyrazol-4-yl]pyrazolo[1,5-a]pyrimidine-3-carboxamide]
5 | 6.2 | – | – | CN(C)C1CCN(C(=O)C2CCN(c3nc(-c4cc(Cl)ccc4OC(F)F)c(NC(=O)c4cnn5cccnc45)s3)CC2)CC1 [Example 197, N-[4-[5-chloro-2-(difluoromethoxy)phenyl]-2-[4-[4-(dimethylamino)piperidine-1-carbonyl]-1-piperidyl]thiazol-5-yl]pyrazolo[1,5-a]pyrimidine-3-carboxamide]
6 | 5.5 | 0.49 | – | O=C(Nc1cn(CC(=O)N2CCC[C@H]2CO)nc1-c1cc(Cl)ccc1OC(F)F)c1cnn2cccnc12 [Example 268, N-[3-[5-chloro-2-(difluoromethoxy)phenyl]-1-[2-[(2S)-2-(hydroxymethyl)pyrrolidin-1-yl]-2-oxo-ethyl]pyrazol-4-yl]pyrazolo[1,5-a]pyrimidine-3-carboxamide]
7 | 15 | – | 0.13 | Nc1nn2cccnc2c1C(=O)Nc1cn(CC(=O)N2C[C@H]3CN(CC4CC4)C[C@H]3C2)nc1-c1cc(Cl)ccc1OC(F)F [Example 57, N-[1-[2-[(3aS,6aR)-2-(cyclopropylmethyl)-1,3,3a,4,6,6a-hexahydropyrrolo[3,4-c]pyrrol-5-yl]-2-oxo-ethyl]-3-[5-chloro-2-(difluoromethoxy)phenyl]pyrazol-4-yl]-2-amino-pyrazolo[1,5-a]pyrimidine-3-carboxamide]
8 | 75.6 | 1.01 | – | CN1CC2(CCN(C(=O)Cn3cc(NC(=O)c4cnn5cccnc45)c(-c4cc(Cl)ccc4OC(F)F)n3)CC2)C1 [Example 218, N-[3-[5-chloro-2-(difluoromethoxy)phenyl]-1-[2-(2-methyl-2,7-diazaspiro[3.5]nonan-7-yl)-2-oxo-ethyl]pyrazol-4-yl]pyrazolo[1,5-a]pyrimidine-3-carboxamide]
9 | 2.2 | – | 0.45 | N#CC1(c2ccccc2)CCN(C(=O)Cn2cc(NC(=O)c3cnn4cccnc34)c(-c3cc(Cl)ccc3OC(F)F)n2)CC1 [Example 281, N-[3-[5-chloro-2-(difluoromethoxy)phenyl]-1-[2-(4-cyano-4-phenyl-1-piperidyl)-2-oxo-ethyl]pyrazol-4-yl]pyrazolo[1,5-a]pyrimidine-3-carboxamide]
10 | 21.9 | – | 0.17 | Nc1nn2cccnc2c1C(=O)Nc1cn(C2CCCNCC2)nc1-c1cc(Cl)ccc1OC(F)F (centres unmarked) [Example 171, 2-amino-N-[1-(azepan-4-yl)-3-[5-chloro-2-(difluoromethoxy)phenyl]pyrazol-4-yl]pyrazolo[1,5-a]pyrimidine-3-carboxamide]
11 | 57.6 | – | 0.62 | CN(C)C(=O)N1CCC(CN2C[C@@H]3CN(C(=O)Cn4cc(NC(=O)c5cnn6cccnc56)c(-c5cc(Cl)ccc5OC(F)F)n4)C[C@@H]3C2)CC1 [Example 36, N-[1-[2-[(3aR,6aS)-2-[[1-(dimethylcarbamoyl)-4-piperidyl]methyl]-1,3,3a,4,6,6a-hexahydropyrrolo[3,4-c]pyrrol-5-yl]-2-oxo-ethyl]-3-[5-chloro-2-(difluoromethoxy)phenyl]pyrazol-4-yl]pyrazolo[1,5-a]pyrimidine-3-carboxamide]
12 | 130 | 0.92 | – | CN1CC2(CCN(C(=O)Cn3cc(NC(=O)c4cnn5cccnc45)c(-c4cc(Cl)ccc4OC(F)F)n3)C2)C1 [Example 221, N-[3-[5-chloro-2-(difluoromethoxy)phenyl]-1-[2-(2-methyl-2,6-diazaspiro[3.4]octan-6-yl)-2-oxo-ethyl]pyrazol-4-yl]pyrazolo[1,5-a]pyrimidine-3-carboxamide]
13 | 253 | 5.35 | – | NC[C@@H]1CCCN1C(=O)Cn1cc(NC(=O)c2cnn3cccnc23)c(-c2cc(Cl)ccc2OC(F)F)n1 [Example 81, N-[1-[2-[(2S)-2-(aminomethyl)pyrrolidin-1-yl]-2-oxo-ethyl]-3-[5-chloro-2-(difluoromethoxy)phenyl]pyrazol-4-yl]pyrazolo[1,5-a]pyrimidine-3-carboxamide]
14 | 19.2 | 1.5 | – | O=C(Nc1sc(CN2CCCCC2)nc1-c1cc(Cl)ccc1OC(F)F)c1cnn2cccnc12 [Example 263, N-[4-[5-chloro-2-(difluoromethoxy)phenyl]-2-(1-piperidylmethyl)thiazol-5-yl]pyrazolo[1,5-a]pyrimidine-3-carboxamide]
15 | 11.8 | 0.55 | – | Nc1nn2cccnc2c1C(=O)Nc1cn(C2CCN(CCCC(=O)N3CCOCC3)CC2)nc1-c1cc(Cl)ccc1OC(F)F [Example 147, 2-amino-N-[3-[5-chloro-2-(difluoromethoxy)phenyl]-1-[1-(4-morpholino-4-oxo-butyl)-4-piperidyl]pyrazol-4-yl]pyrazolo[1,5-a]pyrimidine-3-carboxamide]
16 | 1030 | – | 1.28 | O=C(Nc1cn(CC(=O)N2CCC3(CNC3)C2)nc1-c1cc(Cl)ccc1OC(F)F)c1cnn2cccnc12 [Example 219, N-[3-[5-chloro-2-(difluoromethoxy)phenyl]-1-[2-(2,6-diazaspiro[3.4]octan-6-yl)-2-oxo-ethyl]pyrazol-4-yl]pyrazolo[1,5-a]pyrimidine-3-carboxamide]
17 | 3.5 | – | – | CN1CCC(n2cc(NC(=O)c3c(N)nn4cccnc34)c(-c3cc(Cl)ccc3OC(F)F)n2)CC1 [Example 184, 2-amino-N-[3-[5-chloro-2-(difluoromethoxy)phenyl]-1-(1-methyl-4-piperidyl)pyrazol-4-yl]pyrazolo[1,5-a]pyrimidine-3-carboxamide]
